Among the data in ChEMBL document CHEMBL1150075, “Apiosporamide, a new antifungal agent from the coprophilous fungus Apiospora montagnei” (1994) are zone of inhibition and Activity values, retold here.

The test system of one experiment is Staphylococcus aureus. In words: Antibacterial activity against Staphylococcus aureus ATCC 29213 at 200 ug/disk. Type of experiment: functional. Particulars: read-out: IZ.
The test system of another experiment is Candida albicans. In words: Antifungal activity against Candida albicans ATCC 14053 at 200 ug/disk. The class given is functional, organism-based.
For the next experiment, the system named is Ascobolus. The experiment in a line: Antifungal activity against Ascobolus furfuraceus NRRL 6460 assessed as inhibition of radial growth rate at 200 ug/disk relative to control. The class given is functional. The arrangement: scale not given: the % may be the effect or the level left.
The subject of the next experiment is Bacillus subtilis. In words: Antibacterial activity against Bacillus subtilis ATCC 6051 at 200 ug/disk. Type of experiment: functional. Particulars: read-out: IZ.

Each structure is given as a SMILES string. Active and inactive are the calls of the source. No cut-off for these calls is given here.

For `C[C@H]1CC[C@@H]2[C@@H](C(=O)c3c(O)c([C@]4(O)CC[C@@H](O)[C@H]5O[C@H]54)c[nH]c3=O)[C@@H](C)C=C[C@H]2C1` [APIOSPORAMIDE], the zone of inhibition at 200 µg/disc in the experiment with Staphylococcus aureus turned out to be 21 mm; with Bacillus subtilis it was 32 mm. Moreover, the result with Candida albicans was inactive. Moreover, in the experiment with Ascobolus, the Activity is listed as 53%.
